Laboratory results as given in the NIST ThermoML archive (doi:10.1016/j.tca.2013.08.031).
± gives the expanded uncertainty stated by the source.

Conditions: for mass density: isochoric method

CCC(C)O (centres undefined) [butan-2-ol]
Conditions | Critical density [kg/m3] | Critical temperature [K] | mass density [kg/m3]
306.95 K, Liquid | – | – | 794.06 ± 0.24
335.35 K, Liquid | – | – | 769.05 ± 0.24
367.55 K, Liquid | – | – | 735.98 ± 0.23
408.51 K, Liquid | – | – | 683.53 ± 0.22
433.35 K, Liquid | – | – | 648.53 ± 0.22
463.85 K, Liquid | – | – | 598.18 ± 0.22
492.87 K, Liquid | – | – | 538.17 ± 0.24
504.95 K, Gas | – | – | 76.44 ± 0.16
514.26 K, Gas | – | – | 95.93 ± 0.18
515.15 K, Liquid | – | – | 474.07 ± 0.31
522.2 K, Gas | – | – | 117 ± 0.26
527.92 K, Gas | – | – | 142.27 ± 0.45
529.41 K, Liquid | – | – | 403.55 ± 0.49
533.73 K, Gas | – | – | 184.89 ± 1.1
534.55 K, Liquid | – | – | 347.06 ± 2.8
534.68 K, Gas | – | – | 198.25 ± 2.3
535.83 K, Gas | – | – | 245.67 ± 3.2
535.83 K, Liquid | – | – | 301.19 ± 2.8
535.89 K, Liquid | – | – | 286.65 ± 3.5
535.93 K, Liquid | – | – | 284.93 ± 3.5
535.94 K, Liquid | – | – | 279.19 ± 3.8
535.95 K, Liquid | – | – | 276.45 ± 3.9
Liquid, DSC | 276.4 ± 21 | – | –
Liquid, DTA | – | 535.95 ± 0.39 | –
